Here are results for five compounds from US7064202B1 (University of Kentucky Research Foundation, priority 2003, dated 2006).

The format of data set [1] is in vitro ADME, human. The settings on record: for prodrug decomposition: PBS pH 7.4, human plasma and blood, RP-HPLC.
A short description of data set [2]: Stability of free and core-loaded liposomal prodrug in whole blood.
Data set [3] can be described thus: RP-HPLC stability (decomposition) of 20-OR ester prodrugs in PBS pH 7.4. Format: physicochemical. The source says: CPT glycinate fragmentation pattern [m/z(%)] was: 406 (25%), 331 (100%), 303 (30%); CPT ortho lactone fragmentation pattern was: 406 (100%), 388 (40%), 303 (20%). […] HPLC data for each analog studied was consistent with the generation of the novel decomposition products, along with the lactone and carboxylate forms of the parent drug. […] N-methyl CPT glycinate fragmentation pattern [m/z(%)] was: 420 (86%), 331 (100%), 303 (30%); CPT N-methyl ortho lactone fragmentation pattern was: 420 (100%), 402 (50%), 303 (37%). As in the case for the camptothecin glycinate ester, the novel degradation products were generated from the proposed lactam intermediate. Further evidence for proposed degradation products 3 and 4 includes: (1) Glycine carbonyl ^13C isotopic labeling NMR experiment in PBS showing that this carbon exists as a tetrahedral carbon as in 3. (2) Glycine ^15N isotopic labeling NMR experiments showing that 3 and 4 have amide bonds.

Take `CC[C@@]1(OC(C)=O)C(=O)OCc2c1cc1n(c2=O)Cc2cc3ccccc3nc2-1` [camptothecin-20(S)-acetate, reference compound]: the stability / hydrolysis result in data set [1] (pH 7.4) is “excellent stability”.

Turning to DB-67 4-aminobutanoate ester, the “decomposition of free prodrug” value in data set [2] is reported as “extensive”. Turning to `CCC1(OC(=O)CCCN)C(=O)OCc2c1cc1n(c2=O)Cc2cc3ccccc3nc2-1` (stereo not drawn) [R=COCH2CH2CH2NH2, camptothecin 4-aminobutanoate ester], in data set [3] (buffer, pH 7.4), the half-life of decomposition amounted to 36.7 h. On to `CCc1c2c(nc3ccc(O)cc13)-c1cc3c(c(=O)n1C2)COC(=O)C3(CC)OC(=O)CN` (stereo not drawn) [SN-38 glycinate ester], for which the prodrug decomposition entry in data set [1] was “extensive chemical (i.e. non-enzymatic) decomposition”.

In the case of `CCC1(OC(=O)CN)C(=O)OCc2c1cc1n(c2=O)Cc2cc3ccccc3nc2-1` [camptothecin-20(S)-glycinate 1, camptothecin-20(S)-glycinate], the decomposition in data set [3] (1 μM, PBS (pH 7.4), 37° C., within 3 hours) is recorded as approximately 90%. In data set [1], the prodrug decomposition result is listed as “extensive chemical (i.e. non-enzymatic) decomposition”.
